The text below walks through data of patent US12516022B2, “Derivatives of aryl hydrocarbon receptor agonists” (AZORA THERAPEUTICS, INC., priority 2021, dated 2026).

Data set [1] in a line: Stability of indirubin prodrugs in simulated fluids (FaSSIF, FaSSGF), 24 h at 37° C., UPLC-MS. In kind it is physicochemical. On the procedure:
10.41 g fasted state simulated intestinal fluid (FaSSIF) buffer concentrate was dissolved in 240.3 g deionized water and 560 mg FaSSIF powder added. The mixture was stirred until complete dissolution observed. The test compound (approx. 1-3 mg) was placed in 5.00 mL of FaSSIF solution. Samples of the solution with the test compound were taken after 24 hours in at 37° C. (oven-controlled temperature).
36.78 g fasted state simulated gastric fluid (FaSSGF) buffer concentrate was dissolved in 961.9 g deionized water and 60 mg FaSSGF powder added. The mixture was stirred until complete dissolution observed. The test compound (approx. 1-3 mg) was placed in 5.00 mL of FaSSGF solution. Samples of the solution with the test compound were taken after 24 hours in at 37° C. (oven-controlled temperature).
UPLC-MS analysis of the samples taken at 24 hours was carried out on a Waters Acquity UPLC system consisting of an Acquity I-Class Sample Manager-FL, Acquity I-Class Binary Solvent Manager and an Acquity UPLC Column Manager. UV detection was afforded using an Acquity UPLC PDA detector (scanning from 210 to 400 nm), whilst mass detection was achieved using an Acquity QDa detector (mass scanning from 100-1250 Da; positive and negative modes simultaneously), and ELS detection was achieved using an Acquity UPLC ELS Detector. A Waters Acquity UPLC BEH C18 column (2.1 Å˜50 mm, […]) was used to separate the analytes. Samples were prepared by dissolution (with or without sonication) into 1 mL of 50% (v/v) MeCN in water. The resulting solutions were then filtered through a […] syringe filter before submitting for analysis. All of the solvents, including formic acid and 36% ammonia solution, were purchased as the HPLC grade.

A short description of data set [2]: Time course of conversion to indirubin in FaSSIF at 37° C.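 As to all read-outs here: test compound, about 1-3 mg in 5 mL FaSSIF, sampled and analysed by UPLC-MS with PDA UV (210-400 nm), QDa mass and evaporative light scattering detection.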 In kind it is physicochemical. Particulars: for Conversion to indirubin: over a 24 hour period.

Take `O=C1/C(=C2/C(=O)N(COc3ccccc3)c3ccccc32)Nc2ccccc21`: the “Fraction (percent) of indirubin” value in data set [1] (FaSSGF 37° C. 24 h) and in data set [1] (FaSSIF 37° C. 24 h) was 0% in each case. Also, the “Fraction (percent) of starting material (SM)” value (from here on “Fraction (percent) … (SM)”) in data set [1] (FaSSGF 37° C. 24 h) and in data set [1] (FaSSIF 37° C. 24 h) was 100% each time.
`CN(C)CCNC(=O)N1C(=O)/C(=C2\Nc3ccccc3C2=O)c2ccccc21`: in data set [1] (FaSSGF 37° C. 24 h), the “Fraction (percent) of indirubin” value is given as 0% and the “Fraction (percent) … (SM)” value is 100%. In data set [1] (FaSSIF 37° C. 24 h), the “Fraction (percent) of indirubin” value was 0% and the “Fraction (percent) … (SM)” value is reported as 100%.
For the compound `O=C1/C(=C2/C(=O)N(C(=O)NCCNS(=O)(=O)c3ccc([N+](=O)[O-])cc3)c3ccccc32)Nc2ccccc21`, in data set [1] (FaSSGF 37° C. 24 h), the “Fraction (percent) of indirubin” value is 0% and the “Fraction (percent) … (SM)” value was 100%. Moreover, in data set [1] (FaSSIF 37° C. 24 h), the “Fraction (percent) of indirubin” value is 0% and the “Fraction (percent) … (SM)” value is 100%.
Turning to `O=C1/C(=C2/C(=O)N(CN3CCOCC3)c3ccccc32)Nc2ccccc21` [drawing 261], the indirubin worked out at 24% in data set [2] (FaSSIF 37° C. 24 h); 5% in data set [2] (FaSSIF 37° C., 15 min); 8% in data set [2] (FaSSIF 37° C., 30 min); 6% in data set [2] (FaSSIF 37° C., 1 h); 7% in data set [2] (FaSSIF 37° C., 2 h). The indirubin methylene alcohol in data set [2] (FaSSIF 37° C. 24 h) was found to be 7%; in data set [2] (FaSSIF 37° C., 15 min) it was 0%; in data set [2] (FaSSIF 37° C., 30 min), 3%; in data set [2] (FaSSIF 37° C., 1 h) it was 0%; in data set [2] (FaSSIF 37° C., 2 h) it was 4%. The “starting material (prodrug compound)” value in data set [2] (FaSSIF 37° C. 24 h) is recorded as 46%; in data set [2] (FaSSIF 37° C., 15 min), 69%; in data set [2] (FaSSIF 37° C., 30 min), 80%; in data set [2] (FaSSIF 37° C., 1 h), 64%; in data set [2] (FaSSIF 37° C., 2 h), 65%. Besides, the Conversion to indirubin in data set [2] (FaSSIF 37° C.) was 20-40%.
For the compound `CN(C)CCN(CCN(C)C)CN1C(=O)/C(=C2\Nc3ccccc3C2=O)c2ccccc21` [drawing 257], the indirubin is on record as 74% in data set [2] (FaSSIF 37° C. 24 h); 78% in data set [2] (FaSSIF 37° C., 15 min); 78% in data set [2] (FaSSIF 37° C., 30 min); 78% in data set [2] (FaSSIF 37° C., 1 h); 83% in data set [2] (FaSSIF 37° C., 2 h). In addition, the indirubin methylene alcohol came out at 4% in data set [2] (FaSSIF 37° C. 24 h); 13% in data set [2] (FaSSIF 37° C., 15 min); 13% in data set [2] (FaSSIF 37° C., 30 min); 13% in data set [2] (FaSSIF 37° C., 1 h); 10% in data set [2] (FaSSIF 37° C., 2 h). In addition, the “starting material (prodrug compound)” value in data set [2] (FaSSIF 37° C. 24 h) is on record as 0%; in data set [2] (FaSSIF 37° C., 15 min), 6%; in data set [2] (FaSSIF 37° C., 30 min), 6%; in data set [2] (FaSSIF 37° C., 1 h), 6%; in data set [2] (FaSSIF 37° C., 2 h) it was 4%. The Conversion to indirubin in data set [2] (FaSSIF 37° C.) is 60-80%.
For `CNCCNC(=O)N1C(=O)/C(=C2\Nc3ccccc3C2=O)c2ccccc21.Cl` [drawing 264], the indirubin in data set [2] (FaSSIF 37° C. 24 h) was found to be 0%; in data set [2] (FaSSIF 37° C., 15 min), 0%; in data set [2] (FaSSIF 37° C., 30 min), 0%; in data set [2] (FaSSIF 37° C., 1 h) it was 0%; in data set [2] (FaSSIF 37° C., 2 h) it was 0%. Further, the indirubin methylene alcohol in data set [2] (FaSSIF 37° C. 24 h) amounted to 0%; in data set [2] (FaSSIF 37° C., 15 min), 0%; in data set [2] (FaSSIF 37° C., 30 min), 0%; in data set [2] (FaSSIF 37° C., 1 h) it was 0%; in data set [2] (FaSSIF 37° C., 2 h), 0%. Moreover, the “starting material (prodrug compound)” value in data set [2] (FaSSIF 37° C. 24 h) was 100%; in data set [2] (FaSSIF 37° C., 15 min), 100%; in data set [2] (FaSSIF 37° C., 30 min), 100%; in data set [2] (FaSSIF 37° C., 1 h) it was 100%; in data set [2] (FaSSIF 37° C., 2 h), 100%. In addition, the Conversion to indirubin in data set [2] (FaSSIF 37° C.) is 0-20%.
On to `CN1CCN(CN2C(=O)/C(=C3\Nc4ccccc4C3=O)c3ccccc32)CC1` [drawing 265], for which the indirubin was determined as 30% in data set [2] (FaSSIF 37° C. 24 h); 8% in data set [2] (FaSSIF 37° C., 15 min); 12% in data set [2] (FaSSIF 37° C., 30 min); 11% in data set [2] (FaSSIF 37° C., 1 h); 18% in data set [2] (FaSSIF 37° C., 2 h). For the same compound, the indirubin methylene alcohol in data set [2] (FaSSIF 37° C. 24 h) came out at 0%; in data set [2] (FaSSIF 37° C., 15 min), 0%; in data set [2] (FaSSIF 37° C., 30 min), 0%; in data set [2] (FaSSIF 37° C., 1 h), 0%; in data set [2] (FaSSIF 37° C., 2 h), 0%. Moreover, the “starting material (prodrug compound)” value in data set [2] (FaSSIF 37° C. 24 h) came out at 53%; in data set [2] (FaSSIF 37° C., 15 min) it was 80%; in data set [2] (FaSSIF 37° C., 30 min), 74%; in data set [2] (FaSSIF 37° C., 1 h), 77%; in data set [2] (FaSSIF 37° C., 2 h) it was 68%. In addition, the Conversion to indirubin in data set [2] (FaSSIF 37° C.) is on record as 0-20%.
With `O=C1/C(=C2/C(=O)N(COS(=O)(=O)O)c3ccccc32)Nc2ccccc21` [drawing 262], the indirubin is reported as 12% in data set [2] (FaSSIF 37° C. 24 h); 7% in data set [2] (FaSSIF 37° C., 15 min); 14% in data set [2] (FaSSIF 37° C., 30 min); 7% in data set [2] (FaSSIF 37° C., 1 h); 7% in data set [2] (FaSSIF 37° C., 2 h). Also, the indirubin methylene alcohol is listed as 83% in data set [2] (FaSSIF 37° C. 24 h); 79% in data set [2] (FaSSIF 37° C., 15 min); 73% in data set [2] (FaSSIF 37° C., 30 min); 81% in data set [2] (FaSSIF 37° C., 1 h); 83% in data set [2] (FaSSIF 37° C., 2 h). The “starting material (prodrug compound)” value in data set [2] (FaSSIF 37° C. 24 h) worked out at 0%; in data set [2] (FaSSIF 37° C., 15 min), 0%; in data set [2] (FaSSIF 37° C., 30 min) it was 0%; in data set [2] (FaSSIF 37° C., 1 h), 0%; in data set [2] (FaSSIF 37° C., 2 h), 0%. Further, the Conversion to indirubin in data set [2] (FaSSIF 37° C.) is 0-20%.
Take `CC(=O)N1CCN(CN2C(=O)/C(=C3\Nc4ccccc4C3=O)c3ccccc32)CC1` [drawing 258]: the indirubin in data set [2] (FaSSIF 37° C. 24 h) is on record as 37%; in data set [2] (FaSSIF 37° C., 15 min) it was 8%; in data set [2] (FaSSIF 37° C., 30 min), 12%; in data set [2] (FaSSIF 37° C., 1 h), 12%; in data set [2] (FaSSIF 37° C., 2 h), 21%. For the same compound, the indirubin methylene alcohol in data set [2] (FaSSIF 37° C. 24 h) was 14%; in data set [2] (FaSSIF 37° C., 15 min) it was 12%; in data set [2] (FaSSIF 37° C., 30 min) it was 14%; in data set [2] (FaSSIF 37° C., 1 h) it was 12%; in data set [2] (FaSSIF 37° C., 2 h) it was 10%. In addition, the “starting material (prodrug compound)” value in data set [2] (FaSSIF 37° C. 24 h) is 10%; in data set [2] (FaSSIF 37° C., 15 min), 31%; in data set [2] (FaSSIF 37° C., 30 min), 37%; in data set [2] (FaSSIF 37° C., 1 h), 30%; in data set [2] (FaSSIF 37° C., 2 h), 29%. In data set [2] (FaSSIF 37° C.), the Conversion to indirubin is 40-60%.
